# Biological target: REV-ERBα LBD (Homo sapiens, UniProt P20393, DEL324-422)
# Experiment: biochemical
# Details: FRET assay; 6xHistag-REV-ERBα LBD with FITC-labeled SMRT corepressor peptide; read-out: REVERBα (Agonism of REV-ERBα, EC50)
# Description: TR-FRET corepressor interaction assay. The time-resolved fluorescence resonance energy transfer (TR-FRET) assay was performed in black low-volume 384-well plates (Greiner). Each well contained 4 nM 6×Histag-REV-ERBα LBD (human; residues 281-614 A324-422) or 6×Histag-REV-ERBα LBD (human; residues 381-579) protein expressed in and purified from Escherichia coli using nickel affinity and size exclusion chromatography; 1 nM LanthaScreen Elite Tb-anti-HIS Antibody (Thermo Fisher Scientific); and 400 nM FITC-labeled peptide derived from the SMRT corepressor ([…]) containing a N-terminal FITC label with a six-carbon linker (Ahx) and an amidated C-terminus for stability (synthesized by LifeTein) in TR-FRET buffer (20 mM potassium phosphate, pH 7.4, 50 mM potassium chloride, 1 mM dithiothreitol, and 0.005% Tween-20). Ligand stocks were prepared via serial dilution in DMSO, added to wells in triplicate, and plates were incubated at 4° C. for 2 h and read using a BioTek Synergy Neo multimode plate reader. The Tb donor was excited at 340 nm; its fluorescence emission was monitored at 495 nm, and the acceptor FITC emission was measured at 520 nm; and the TR-FRET ratio was calculated as the signal at 520 nm divided by the signal at 495 nm. Data were plotted using GraphPad Prism as TR-FRET ratio vs. ligand concentration and fit to sigmoidal dose response curve equation.
# Exemplary compounds of the present disclosure were assayed as described above to assess agonism of REV-ERBα. Results of the FRET assay are shown in Table 2 below (A: EC50<100 nM; B: EC50 100 nM-1000 nM; C: EC50>1000 nM; NT: not tested).
# Sequence of REV-ERBα LBD (P20393 with tags, fused parts or gaps DEL324-422): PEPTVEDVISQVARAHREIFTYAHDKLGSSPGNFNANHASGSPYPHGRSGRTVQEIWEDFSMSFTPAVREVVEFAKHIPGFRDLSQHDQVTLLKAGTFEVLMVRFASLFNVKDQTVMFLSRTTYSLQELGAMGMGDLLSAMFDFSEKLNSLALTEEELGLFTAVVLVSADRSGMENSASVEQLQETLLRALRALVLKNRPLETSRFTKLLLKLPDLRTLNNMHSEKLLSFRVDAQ
# Sequence of REV-ERBα LBD (Q9Y618 2335-2356 partner limits assumed): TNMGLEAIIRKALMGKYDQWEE
row,SMILES,EC50 [nM]
1,"CC(C)(C)Cn1cc([C@H](NS(=O)(=O)C2CC2)C(F)F)c2cc(F)c(-c3cc(F)cnc3C(F)(F)F)nc21 [Compound 148, (S)—N-(2,2-difluoro-1-(5-fluoro-6-(5-fluoro-2-(trifluoromethyl)pyridin-3-yl)-1-neopentyl-1H-pyrrolo[2,3-b]pyridin-3-yl)ethyl)cyclopropanesulfonamide]",< 100
2,"O=S(=O)(N[C@@H](c1cn(C2CCC2)c2nc(-c3cc(Cl)cnc3C(F)(F)F)c(F)cc12)C(F)F)C1CC1 [Compound 165, (S)—N-(1-(6-(5-chloro-2-(trifluoromethyl)pyridin-3-yl)-1-cyclobutyl-5-fluoro-1H-pyrrolo[2,3-b]pyridin-3-yl)-2,2-difluoroethyl)cyclopropanesulfonamide]",< 100
3,"O=S(=O)(N[C@@H](c1cn(C2CC(F)C2)c2cc(-c3ccc(F)cc3C(F)(F)F)c(F)cc12)C(F)F)C1CC1 (stereo partly drawn) [Compound 181, (S)—N-(2,2-difluoro-1-(5-fluoro-6-(4-fluoro-2-(trifluoromethyl)phenyl)-1-(3-fluorocyclobutyl)-1H-indol-3-yl)ethyl)cyclopropanesulfonamide]",< 100
4,"N#Cc1nccc(C(F)(F)F)c1-c1nc2c(cc1F)c([C@H](NS(=O)(=O)C1CC1)C(F)F)cn2C1CCC1 [Compound 160, N-((1S)-1-(6-(2-cyano-4-(trifluoromethyl)pyridin-3-yl)-1-cyclobutyl-5-fluoro-1H-pyrrolo[2,3-b]pyridin-3-yl)-2,2-difluoroethyl)cyclopropanesulfonamide]",< 100
5,"Cc1ccccc1-c1cc2c(cc1F)c([C@H](NS(=O)(=O)C1CC1)C(F)F)cn2CC(C)(C)C [Compound 12, (S)—N-(2,2-difluoro-1-(5-fluoro-1-neopentyl-6-(o-tolyl)-1H-indol-3yl)ethyl)cyclopropanesulfonamide]",< 100
6,"O=S(=O)(N[C@@H](c1cn(C2COC2)c2cc(-c3ccc(F)cc3C(F)(F)F)c(F)cc12)C(F)F)C1CC1 [Compound 176, (S)—N-(2,2-difluoro-1-(5-fluoro-6-(4-fluoro-2-(trifluoromethyl)phenyl)-1-(oxetan-3-yl)-1H-indol-3-yl)ethyl)cyclopropanesulfonamide]",100 to 1000
7,"CC(C)(C)Cn1cc([C@H](NS(=O)(=O)C2CC2)C(F)F)c2ccc(-c3ncccc3Cl)cc21 [Compound 85, (S)—N-(1-(6-(3-chloropyridin-2-yl)-1-neopentyl-1H-indol-3-yl)-2,2-difluoroethyl)cyclopropanesulfonamide]",< 100
8,"Cc1cnc(C(F)(F)F)c(-c2nc3c(cc2F)c([C@H](NS(=O)(=O)C2CC2)C(F)F)cn3C2CCC2)c1 [Compound 157, (S)—N-(1-(1-cyclobutyl-5-fluoro-6-(5-methyl-2-(trifluoromethyl)pyridin-3-yl)-1H-pyrrolo[2,3-b]pyridin-3-yl)-2,2-difluoroethyl)cyclopropanesulfonamide]",< 100
9,"CC(C)(C)Cn1cc([C@H](NS(=O)(=O)C2CC2)C(F)F)c2ccc(C3CCOCC3)cc21 [Compound 174, (S)—N-(2,2-difluoro-1-(1-neopentyl-6-(tetrahydro-2H-pyran-4-yl)-1H-indol-3-yl)ethyl)cyclopropanesulfonamide]",< 100
10,"Nc1ccc(-c2nc3c(cc2F)c([C@H](NS(=O)(=O)C2CC2)C(F)F)cn3C2CCC2)c(C(F)(F)F)n1 [Compound 180, (S)—N-(1-(6-(6-amino-2-(trifluoromethyl)pyridin-3-yl)-1-cyclobutyl-5-fluoro-1H-pyrrolo[2,3-b]pyridin-3-yl)-2,2-difluoroethyl)cyclopropanesulfonamide]",< 100
11,"O=S(=O)(N[C@@H](c1cn(C2COC2)c2nc(-c3ccc(F)cc3C(F)(F)F)c(F)cc12)C(F)F)C1CC1 [Compound 177, (S)—N-(2,2-difluoro-1-(5-fluoro-6-(4-fluoro-2-(trifluoromethyl)phenyl)-1-(oxetan-3-yl)-1H-pyrrolo[2,3-b]pyridin-3-yl)ethyl)cyclopropanesulfonamide]",100 to 1000
12,"CC(C)(C)Cn1cc(C(NS(=O)(=O)C23CC(C2)C3)C(F)F)c2cc(F)c(-c3ccccc3C(F)(F)F)cc21 (stereo not shown) [Compound 41, N-(2,2-difluoro-1-(5-fluoro-1-neopentyl-6-(2-(trifluoromethyl)phenyl)-1H-indol-3-yl)ethyl)bicyclo[1.1.1]pentane-1-sulfonamide]",< 100
13,"CC(C)(C)Cn1cc([C@H](NS(=O)(=O)C2CC(F)C2)C(F)F)c2ccc(-c3cccnc3C(F)(F)F)cc21 (stereo partly drawn) [Compound 46, (S)—N-(2,2-difluoro-1-(1-neopentyl-6-(2-(trifluoromethyl)pyridin-3-yl)-1H-indol-3-yl)ethyl)-3-fluorocyclobutane-1-sulfonamide]",< 100
14,"CC(C)(C)Cn1cc([C@H](NS(=O)(=O)C2CC2)C(F)F)c2ccc(-c3ncccc3C(F)F)cc21 [Compound 100, (S)—N-(1-(6-(3-(difluoromethyl)pyridin-2-yl)-1-neopentyl-1H-indol-3-yl)-2,2-difluoroethyl)cyclopropanesulfonamide]",< 100
15,"N#Cc1nccc(C(F)(F)F)c1-c1cc2c(cc1F)c([C@H](NS(=O)(=O)C1CC1)C(F)F)cn2C1CCC1 [Compound 159, N-((1S)-1-(6-(2-cyano-4-(trifluoromethyl)pyridin-3-yl)-1-cyclobutyl-5-fluoro-1H-indol-3-yl)-2,2-difluoroethyl)cyclopropanesulfonamide]",< 100
16,"CC(C)(C)Cn1cc([C@H](NS(=O)(=O)C2CC2)C(F)F)c2ccc(-c3ccc(=O)[nH]c3C(F)(F)F)cc21 [Compound 166, (S)—N-(2,2-difluoro-1-(1-neopentyl-6-(6-oxo-2-(trifluoromethyl)-1,6-dihydropyridin-3-yl)-1H-indol-3-yl)ethyl)cyclopropanesulfonamide]",< 100
17,"CC(C)(C)Cn1cc([C@H](NS(=O)(=O)N2CC(F)C2)C(F)F)c2cc(F)c(-c3ccccc3C(F)(F)F)cc21 [Compound 76, (S)—N-(2,2-difluoro-1-(5-fluoro-1-neopentyl-6-(2-(trifluoromethyl)phenyl)-1H-indol-3-yl)ethyl)-3-fluoroazetidine-1-sulfonamide]",< 100

# Second part, the molecule after the results:
row,EC50 [nM],SMILES
1,< 100,"CC(C)(C)Cn1cc([C@H](NS(=O)(=O)C2CC2)C(F)F)c2cc(F)c(-c3ncc(C#N)cc3C(F)(F)F)cc21 [Compound 138, (S)—N-(1-(6-(5-cyano-3-(trifluoromethyl)pyridin-2-yl)-5-fluoro-1-neopentyl-1H-indol-3-yl)-2,2-difluoroethyl)cyclopropanesulfonamide]"
2,< 100,"CC(C)(C)Cn1cc([C@H](NS(=O)(=O)C2CC2)C(F)(F)F)c2cc(F)c(-c3cccnc3C(F)(F)F)cc21 [Compound 171, (S)—N-(2,2,2-trifluoro-1-(5-fluoro-1-neopentyl-6-(2-(trifluoromethyl)pyridin-3-yl)-1H-indol-3-yl)ethyl)cyclopropanesulfonamide]"
3,< 100,"Cc1ncccc1-c1cc2c(cc1F)c(C(C)NS(=O)(=O)C1CC1)cn2CC(C)(C)C (stereo not shown) [Compound 36, N-(1-(5-fluoro-6-(2-methylpyridin-3-yl)-1-neopentyl-1H-indol-3-yl)ethyl)cyclopropanesulfonamide]"
4,100 to 1000,"CC(C)(C)Cn1cc([C@H](NS(=O)(=O)C2CC2)C(F)(F)F)c2ccc(-c3cc(F)ccc3C#N)cc21 [Compound 2, (S)—N-(1-(6-(2-cyano-5-fluorophenyl)-1-neopentyl-1H-indol-3-yl)-2,2,2-trifluoroethyl)cyclopropanesulfonamide]"
5,< 100,"CC(C)(C)Cn1cc([C@H](NS(=O)(=O)C2CC2)C(F)F)c2cc(F)c(-c3cc(Cl)cnc3C(F)(F)F)cc21 [Compound 143, (S)—N-(1-(6-(5-chloro-2-(trifluoromethyl)pyridin-3-yl)-5-fluoro-1-neopentyl-1H-indol-3-yl)-2,2-difluoroethyl)cyclopropanesulfonamide]"
6,100 to 1000,"CC(C)(C)Cn1cc([C@H](NS(=O)(=O)C2CC2)C(F)(F)F)c2cc(F)c(-c3ncccc3C#N)cc21 [Compound 10, (S)—N-(1-(6-(3-cyanopyridin-2-yl)-5-fluoro-1-neopentyl-1H-indol-3-yl)-2,2,2-trifluoroethyl)cyclopropanesulfonamide]"
7,100 to 1000,"CC(NS(=O)(=O)C1CC1)c1cn(CC(C)(C)C)c2cc(-c3cccnc3C(F)(F)F)c(F)cc12 (single isomer, unassigned) [Compound 29, (S or R) N-[1-[1-(2,2-dimethylpropyl)-5-fluoro-6-[2-(trifluoromethyl)-3-pyridyl]indol-3-yl]ethyl]cyclopropanesulfonamide]"
8,100 to 1000,"CC(C)(C)Cn1cc([C@H](NS(=O)(=O)C2CC2)C(F)(F)F)c2cc(F)c(-c3ncccc3C(F)(F)F)cc21 [Compound 9, (S)—N-(2,2,2-trifluoro-1-(5-fluoro-1-neopentyl-6-(3-(trifluoromethyl)pyridin-2-yl)-1H-indol-3-yl)ethyl)cyclopropanesulfonamide]"
